Tests used:
[1] = target: T1, ATP Dependent Citrate Lyase (Mus musculus, UniProt Q91V92); assay: In vitro enzyme activity, liver homogenate: ATP dependent citrate lyase; type: biochemical, CF1 male mouse; conditions: ± SD, N = 6, read-out: Percent Control, in vitro enzyme activity
T1 construct: 10% homogenates of CF1 male mouse liver; from tissue; host or cells: CF1 male mouse liver, 10% homogenate
T1 sequence (Q91V92 1-1091): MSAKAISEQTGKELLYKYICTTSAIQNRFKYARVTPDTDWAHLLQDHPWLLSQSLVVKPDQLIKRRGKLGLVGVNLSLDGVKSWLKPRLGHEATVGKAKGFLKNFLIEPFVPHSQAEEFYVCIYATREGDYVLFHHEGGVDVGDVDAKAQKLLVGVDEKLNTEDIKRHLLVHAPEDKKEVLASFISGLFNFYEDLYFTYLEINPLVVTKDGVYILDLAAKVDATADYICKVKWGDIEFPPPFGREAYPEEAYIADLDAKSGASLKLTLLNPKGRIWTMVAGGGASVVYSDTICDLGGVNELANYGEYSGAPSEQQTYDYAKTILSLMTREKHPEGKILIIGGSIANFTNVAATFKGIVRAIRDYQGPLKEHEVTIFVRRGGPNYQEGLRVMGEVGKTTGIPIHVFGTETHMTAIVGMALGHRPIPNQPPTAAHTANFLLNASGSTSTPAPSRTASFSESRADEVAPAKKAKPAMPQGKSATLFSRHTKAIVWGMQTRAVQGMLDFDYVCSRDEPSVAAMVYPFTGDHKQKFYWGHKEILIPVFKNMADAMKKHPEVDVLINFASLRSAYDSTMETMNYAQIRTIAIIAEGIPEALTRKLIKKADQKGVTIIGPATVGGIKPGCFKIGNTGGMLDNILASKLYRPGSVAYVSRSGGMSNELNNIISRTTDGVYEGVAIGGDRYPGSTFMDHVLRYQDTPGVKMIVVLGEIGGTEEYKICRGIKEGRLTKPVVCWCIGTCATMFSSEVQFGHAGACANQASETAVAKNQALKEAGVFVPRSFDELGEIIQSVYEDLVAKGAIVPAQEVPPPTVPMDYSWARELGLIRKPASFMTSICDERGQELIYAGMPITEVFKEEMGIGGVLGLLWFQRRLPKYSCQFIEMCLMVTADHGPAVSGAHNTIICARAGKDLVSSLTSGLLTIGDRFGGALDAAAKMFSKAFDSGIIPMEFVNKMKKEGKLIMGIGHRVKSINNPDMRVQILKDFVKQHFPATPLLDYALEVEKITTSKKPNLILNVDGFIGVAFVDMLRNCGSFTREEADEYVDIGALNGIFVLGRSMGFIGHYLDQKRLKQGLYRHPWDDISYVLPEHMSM
Description: (§1) In vitro enzymatic studies were undertaken using 10% homogenates of CF1 male mouse liver with […] of compound 3,4,5,6-dibenzohomopiperidine. In addition, in vivo enzymatic studies were performed, again using 10% liver homogenates (prepared in 0.25 M sucrose plus 0.001 M (ethylenedinitrilo)-tetraacetic acid, ph 7.25 from CF1 male mice obtained after administering 3,4,5,6-dibenzohomopiperidine for 16 days at a concentration ranging from 10 to 60 mg/kg/day, intraperitoneally.
(§2) The following enzyme activities were determined by following standard literature procedures: acetyl coenzyme synthetase; adenosine triphosphate dependent citrate lyase; mitochondrial citrate exchange; cholesterol/7 hydroxylase; 3-hydroxy-3-methyl-glutaryl coenzyme A reductase; acetyl coenzyme A carboxylase activity; fatty acid synthetase activity; sn-glycerol-3-phosphate acyl transferase activity; phosphatidate phosphohydrolase activity; cholesterol acyl transferase; and heparin activated hepatic lypoprotein lipase. Protein was determined for all enzyme assays by the Lowry et al. technique (J. Biol. Chem, 193, 265 (1951)).

[2] = system: Phosphatidate Phosphohydrolase; assay: In vivo enzyme activity, liver of treated mice: phosphatidate phosphohydrolase; design: species or system CF1 male mice; conditions: 16 days, ± SD
Description: as §1, §2

[3] = system: sn-Glycerol-3-Phosphate Acyl Transferase; assay: In vitro enzyme activity, liver homogenate: sn-glycerol-3-phosphate acyl transferase; type: biochemical, CF1 male mouse; conditions: ± SD, N = 6
Description: as §1, §2

serum triglycerides = assay: Testing of Normal Mice: serum triglycerides (BioDynamics kit), Example 7; type: in vivo, CF1 male mice; conditions: Mus musculus, 384 h, day 16, ± SD
Fatty Acid Synthetase = assay: In vivo enzyme activity, liver of treated mice: fatty acid synthetase; design: species or system CF1 male mice; conditions: 16 days, ± SD
Description: as §1, §2

^3 H-cholesterol = assay: Effect on 3H Cholesterol Distribution in Rats, Example 12; type: in vivo, Sprague Dawley rats; conditions: oral 20 mg/kg/day
Description: A group of 6 Sprague Dawley rats, each weighing approximately 300 g, were treated with 3,4,5,6-dibenzohomopiperdine applied orally at a dosage of 20 mg/kg per day for 4 days. Six similar Sprague Dawley rats were untreated and served as a control. On the 13th day, 10 μCi of ^3 H-cholesterol was administered orally. The rats were sacrificed and tissue samples were combusted or plated on filter paper, dried and digested for 24 hours in hyamine hydroxide at 40° C. and counted. Results of this test are reported as disintegrations per minute (DPM) per total organ.
In Table 10, the average organ weight and feces of the treated and untreated rats are reported. The table indicates the concentration of ^3 H-cholesterol in the organs and feces of the treated and untreated (control) rats.

[4] = system: ATP Dependent Citrate Lyase; assay: In vivo enzyme activity, liver of treated mice: ATP dependent citrate lyase; design: species or system CF1 male mice; conditions: 16 days, ± SD
Description: as §1, §2

[5] = system: sn-Glycerol-3-Phosphate Acyl Transferase; assay: In vivo enzyme activity, liver of treated mice: sn-glycerol-3-phosphate acyl transferase; design: species or system CF1 male mice; conditions: 16 days, ± SD
Description: as §1, §2

## c1ccc2c(c1)CNCc1ccccc1-2 [Compound 3, 3,4,5,6-dibenzohomopiperidine]
[1]; 50 μM
  remaining activity at 50 µM: 87 ± 5%
[1]; 100 μM
  remaining activity at 100 µM: 38 ± 3%
[1]; 200 μM
  remaining activity at 200 µM: 33 ± 4%
[2]; 10 mg/kg/day ip
  Percent Control, in vivo enzyme activity: 51 ± 4%
[2]; 20 mg/kg/day ip
  Percent Control, in vivo enzyme activity: 47 ± 9%
[2]; 40 mg/kg/day ip
  Percent Control, in vivo enzyme activity: 81 ± 6%
[2]; 60 mg/kg/day ip
  Percent Control, in vivo enzyme activity: 100 ± 6%
[3]; 50 μM
  Percent Control, in vitro enzyme activity: 35 ± 6%
[3]; 100 μM
  Percent Control, in vitro enzyme activity: 34 ± 5%
[3]; 200 μM
  Percent Control, in vitro enzyme activity: 51 ± 4%
Serum triglycerides; 10 mg/kg/day ip
  response vs control in vivo at 10 mg/kg: 48 ± 5%
Serum triglycerides; 40 mg/kg/day ip
  response vs control in vivo at 40 mg/kg: 44 ± 6%
Serum triglycerides; 60 mg/kg/day ip
  response vs control in vivo at 60 mg/kg: 55 ± 6%
Fatty Acid Synthetase; 10 mg/kg/day ip
  Percent Control, in vivo enzyme activity: 100 ± 8%
Fatty Acid Synthetase; 20 mg/kg/day ip
  Percent Control, in vivo enzyme activity: 114 ± 6%
Fatty Acid Synthetase; 40 mg/kg/day ip
  Percent Control, in vivo enzyme activity: 106 ± 7%
Fatty Acid Synthetase; 60 mg/kg/day ip
  Percent Control, in vivo enzyme activity: 110 ± 8%
^3 H-cholesterol; brain
  3H-cholesterol, Treated % Recovery: 0.162%
  3H-cholesterol, Treated DPM per total organ: 9,216 DPM
^3 H-cholesterol; chyme
  3H-cholesterol, Treated % Recovery: 11.739%
  3H-cholesterol, Treated DPM: 667,840 DPM
^3 H-cholesterol; feces
  3H-cholesterol, Treated % Recovery: 14.462%
  3H-cholesterol, Treated DPM: 822,719 DPM
^3 H-cholesterol; heart
  3H-cholesterol, Treated % Recovery: 0.452%
  3H-cholesterol, Treated DPM per total organ: 25,692 DPM
^3 H-cholesterol; kidney
  3H-cholesterol, Treated % Recovery: 0.652%
  3H-cholesterol, Treated DPM per total organ: 37,096 DPM
^3 H-cholesterol; large intestine
  3H-cholesterol, Treated % Recovery: 3.757%
  3H-cholesterol, Treated DPM per total organ: 213,777 DPM
^3 H-cholesterol; liver
  3H-cholesterol, Treated % Recovery: 23.615%
  3H-cholesterol, Treated DPM per total organ: 1,343,450 DPM
^3 H-cholesterol; lung
  3H-cholesterol, Treated % Recovery: 2.183%
  3H-cholesterol, Treated DPM per total organ: 124,180 DPM
^3 H-cholesterol; plasma
  3H-cholesterol, Treated DPM: 26,018 DPM
^3 H-cholesterol; small intestine
  3H-cholesterol, Treated % Recovery: 38.525%
  3H-cholesterol, Treated DPM per total organ: 2,191,623 DPM
^3 H-cholesterol; spleen
  3H-cholesterol, Treated % Recovery: 1.806%
  3H-cholesterol, Treated DPM per total organ: 102,723 DPM
^3 H-cholesterol; stomach
  3H-cholesterol, Treated % Recovery: 2.189%
  3H-cholesterol, Treated DPM per total organ: 124,552 DPM
[4]; 10 mg/kg/day ip
  Percent Control, in vivo enzyme activity: 73 ± 6%
[4]; 20 mg/kg/day ip
  Percent Control, in vivo enzyme activity: 63 ± 4%
[4]; 40 mg/kg/day ip
  Percent Control, in vivo enzyme activity: 62 ± 3%
[4]; 60 mg/kg/day ip
  Percent Control, in vivo enzyme activity: 65 ± 5%
[5]; 10 mg/kg/day ip
  Percent Control, in vivo enzyme activity: 45 ± 7%
[5]; 20 mg/kg/day ip
  Percent Control, in vivo enzyme activity: 68 ± 8%
[5]; 40 mg/kg/day ip
  Percent Control, in vivo enzyme activity: 62 ± 6%
[5]; 60 mg/kg/day ip
  Percent Control, in vivo enzyme activity: 81 ± 6%

Source: patent US4689326A, “Process for controlling hyperlipidemia” (Research Corporation, priority 1985, dated 1987)
